From US20240174690A1, “ANNULATED 2-AMINO-3-CYANO THIOPHENES AND DERIVATIVES FOR THE TREATMENT OF CANCER” (BOEHRINGER INGELHEIM INTERNATIONAL GMBH, priority 2021, published 2024)

What was measured:
NCI-H2122 cells = experiment: NCI-H2122 CTG proliferation assay (120 h) (NSCLC, G12C); type: cell-based; settings: Homo sapiens
Procedure: NCI-H2122 CTG Proliferation Assay (120 h) (NSCLC, G12C)
The CTG assay is designed to measure quantitatively the proliferation of NCI-H2122 cells (ATCC CRL-5985), using the CellTiter Glow Assay Kit (Promega G7571). Cells are grown in RPMI medium (ATCC) supplemented with Fetal Calf Serum (Life Technologies, Gibco BRL, Cat. No. 10270-106). On “day 0” 200 NCI-H2122 cells are seeded in 60 μL RPMI ATCC+10% FCS+Penstrep in a black 384-well plate, flat and clear bottom (Greiner, PNr. 781091). Cells are then incubated in the plates at 37° C. in a CO2 incubator overnight. On day 1, compounds (10 mM stock in DMSO) are added with the ECHO acoustic liquid handler system (Beckman Coulter), including DMSO controls. Plates are incubated for 120 h, and cell viability is measured using CellTiter-Glo luminescent cell viability reagent (Promega product code G7570). Viability (stated as percent of control) is defined as relative luminescence units RLU of each well divided by the RLU of cells in DMSO controls. IC50 values are determined from viability measurements by non-linear regression using a four parameter model.

[1] = tested on: KRAS G12C-dependent Ba/F3 cells; experiment: Ba/F3 proliferation assay, KRAS G12C; type: cell-based; settings: Mus musculus, BaF3, 72 h, AlamarBlue
In short: (§1)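 IL-3-independent Ba/F3 lines driven by transduced KRAS G12C, G12D or G12V, with puromycin withdrawn about ten days before testing. Viability after compound treatment measured by AlamarBlue fluorescence in duplicate, and values derived by curve fitting.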

[2] = tested on: KRAS G12V-dependent Ba/F3 cells; experiment: Ba/F3 proliferation assay, KRAS G12V; type: cell-based; settings: Mus musculus, BaF3, 72 h, AlamarBlue;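 further: proliferation IC50 in KRAS G12V-dependent Ba/F3 cells read by AlamarBlue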
In short: as §1

SK-CO-1 cells = experiment: SK-CO-1 CTG proliferation assay (120 h) (CRC, G12V); type: cell-based; settings: Homo sapiens; SK-CO-1 cells (CRC, G12V), CTG 120 h
Procedure: SK-CO-1 CTG Proliferation Assay (120 h) (CRC, G12V)
SK-CO-1 cells (ATCC HTB-39) are dispensed into 384-well plates, flat and clear bottom (Greiner, PNr. 781091) at a density of 500 cells per well in 60 μL EMEM (Sigma M5650)+10% Fetal Calf Serum (HyClone, PNr.: SH30084.03) and incubated at 37° C. in a CO2 incubator overnight. The next day, compounds (10 mM stock in DMSO) are added with the ECHO acoustic liquid handler system (Beckman Coulter), including DMSO controls. Plates are incubated for 120 h, and cell viability is measured using CellTiter-Glo luminescent cell viability reagent (Promega product code G7570). Viability (stated as percent of control) is defined as relative luminescence units RLU of each well divided by the RLU of cells in DMSO controls. IC50 values are determined from viability measurements by non-linear regression using a four-parameter model.

[3] = Metabolic (microsomal) stability assay, human liver microsomes (HLM); type: in vitro ADME; settings: predicted clearance as percent of liver blood flow, 1 μM
In short: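 LC-MS/MS tracked parent disappearance at 0, 5, 15, 30 and 60 min in NADPH-initiated incubations with 1 mg/mL human microsomal protein and 1 μM compound at 37°C, pH 7.5. First-order fits gave intrinsic clearance, which was scaled up and reported as % QH. NADPH-free controls were also run.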

Compound | IC50 (NCI-H2122 cells) [nM] | IC50 [1] [nM] | IC50 [2] [nM] | IC50 (SK-CO-1 cells) [nM] | HLM QH [3] [%]
C[C@H](Oc1cc(-c2cc[nH]n2)nc(-c2noc3c2CCC[C@@]32CCCc3sc(N)c(C#N)c32)n1)[C@@H]1CCCN1C [II-71] | 933 | 28 | 8 | 18 | <24
C[C@H](Oc1cc(N2CCCC3(COC3)C2)nc(-c2noc3c2CCC[C@@]32CCCc3sc(N)c(C#N)c32)n1)[C@@H]1CCCN1C [II-72] | 2250 | 22 | 21 | 71 | 41
C[C@H](Oc1cc(N2CCCC2=O)nc(-c2noc3c2CCC[C@@]32CCCc3sc(N)c(C#N)c32)n1)[C@@H]1CCCN1C [II-73] | 1610 | 10 | 17 | 43 | 53
C[C@H](Oc1cc(-c2cnn(C)c2)nc(-c2noc3c2CCC[C@@]32CCCc3sc(N)c(C#N)c32)n1)[C@@H]1CCCN1C [II-74] | 2860 | 50 | 11 | 52 | <24
C[C@H](Oc1cc(N2CCN(C)C2=O)nc(-c2noc3c2CCC[C@@]32CCCc3sc(N)c(C#N)c32)n1)[C@@H]1CCCN1C [II-75] | 3130 | 26 | 14 | 23 | 38
C[C@H](Oc1cc(C2CCOCC2)nc(-c2noc3c2CCC[C@@]32CCCc3sc(N)c(C#N)c32)n1)[C@@H]1CCCN1C [II-76] | 1300 | 18 | 19 | 120 | 31
C[C@H](Oc1cc(N2CCOC3(COC3)C2)nc(-c2noc3c2CCC[C@@]32CCCc3sc(N)c(C#N)c32)n1)[C@@H]1CCCN1C [II-77] | 1780 | 14 | 11 | 40 | 34
C[C@H](Oc1cc(-c2ccncc2)nc(-c2noc3c2CCC[C@@]32CCCc3sc(N)c(C#N)c32)n1)[C@@H]1CCCN1C [II-78] | 2140 | 37 | 14 | 84 | 35
Cc1nccn1-c1cc(O[C@@H](C)[C@@H]2CCCN2C)nc(-c2noc3c2CCC[C@@]32CCCc3sc(N)c(C#N)c32)n1 [II-79] | 1270 | 24 | 18 | 188 | 45
C[C@H](Oc1cc(-c2cncs2)nc(-c2noc3c2CCC[C@@]32CCCc3sc(N)c(C#N)c32)n1)[C@@H]1CCCN1C [II-80] | 1670 | 21 | 10 | 148 | 30
CC(=O)N1CC=C(c2cc(O[C@@H](C)[C@@H]3CCCN3C)nc(-c3noc4c3CCC[C@@]43CCCc4sc(N)c(C#N)c43)n2)CC1 [II-81] | 1680 | 49 | 13 | 32 | <24
C[C@H](Oc1cc(-c2cncnc2)nc(-c2noc3c2CCC[C@@]32CCCc3sc(N)c(C#N)c32)n1)[C@@H]1CCCN1C [II-82] | 2680 | 82 | 44 | 170 | <24
C[C@H](Oc1cc(-c2ccn(C3COC3)n2)nc(-c2noc3c2CCC[C@@]32CCCc3sc(N)c(C#N)c32)n1)[C@@H]1C[C@H](F)CN1C [II-83] | 3820 | 15 | 18 | 447 | 72
C[C@H](Oc1cc(-c2ccn(-c3ccsc3)n2)nc(-c2noc3c2CCC[C@@]32CCCc3sc(N)c(C#N)c32)n1)[C@@H]1CCCN1C [II-84] | 583 | 36 | 17 | 116 | <24
C[C@H](Oc1cc(-c2ccccn2)nc(-c2noc3c2CCC[C@@]32CCCc3sc(N)c(C#N)c32)n1)[C@@H]1CCCN1C [II-85] | 1120 | 19 | 8 | 51 | 47
C[C@H](Oc1cc(-c2cnn(C)n2)nc(-c2noc3c2CCC[C@@]32CCCc3sc(N)c(C#N)c32)n1)[C@@H]1CCCN1C [II-86] | 2080 | 25 | 14 | 121 | 35
C[C@H](Oc1cc(-c2cn[nH]c2)nc(-c2noc3c2CCC[C@@]32CCCc3sc(N)c(C#N)c32)n1)[C@@H]1CCCN1C [II-87] | 1990 | 47 | 25 | 71 | <24
C[C@H](Oc1cc([C@H]2CCOC2)nc(-c2noc3c2CCC[C@@]32CCCc3sc(N)c(C#N)c32)n1)[C@@H]1CCCN1C [II-88] | 434 | 6 | 6 | 47 | 26
C[C@H](Oc1cc(-c2ccn(-c3ccccc3)n2)nc(-c2noc3c2CCC[C@@]32CCCc3sc(N)c(C#N)c32)n1)[C@@H]1CCCN1C [II-89] | 1530 | 57 | 18 | 198 | <24
C[C@H](Oc1cc(N2CCc3cccnc32)nc(-c2noc3c2CCC[C@@]32CCCc3sc(N)c(C#N)c32)n1)[C@@H]1CCCN1C [II-90] | 1860 | 157 | 115 | 451 | <24
CO[C@@H]1C[C@@H]([C@H](C)Oc2cc(-c3ccn(C)n3)nc(-c3noc4c3CCC[C@@]43CCCc4sc(N)c(C#N)c43)n2)N(C)C1 [II-91] | 1090 | 15 | 8 | 78 | 46
C[C@H](Oc1cc(-n2cccc3cnnc2-3)nc(-c2noc3c2CCC[C@@]32CCCc3sc(N)c(C#N)c32)n1)[C@@H]1CCCN1C [II-92] | 1810 | 47 | 27 | 279 | <24
C[C@H](Oc1cc(-n2ccnc2Cl)nc(-c2noc3c2CCC[C@@]32CCCc3sc(N)c(C#N)c32)n1)[C@@H]1CCCN1C [II-93] | 1560 | 16 | 45 | 140 | 44
C[C@H](Oc1cc([C@@H]2CCOC2)nc(-c2noc3c2CCC[C@@]32CCCc3sc(N)c(C#N)c32)n1)[C@@H]1CCCN1C [II-94] | 834 | 5 | 3 | 19 | 48
